Measurements taken from the supplement of paper PMC8671470.

Key:
Conditions in all cases: 72 h
NOMO-1 = test: cell viability (% survival relative to DMSO control, bortezomib = 0%); higher = less cytotoxic
Procedure, shortened: (§1)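 Fifteen myeloid leukaemia cell lines (10 AML, 5 CML) were seeded at a density titrated to the linear growth range. They went into 384-well plates with compounds pre-printed at 1, 10, 100, 1000 or 10000 nM in duplicate. After 72 h at 37 °C with 5% CO2, viability was read by CellTiter-Glo luminescence. Values are percent survival, with vehicle set to 100% and a 10 µM positive control to 0%, averaged over the duplicates.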

Mono-Mac-6 = test: as above
Procedure, shortened: as §1

THP-1 = test: as above
Procedure, shortened: as §1

KU-812 = test: as above
Procedure, shortened: as §1

[1] = test system: myeloid leukemia patient primary cells Pat.6; test: cell viability (% survival relative to DMSO control); higher = less cytotoxic
Procedure, shortened: (§2)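 Mononuclear cells from patients with AML or CML were thawed, purified on Ficoll and placed in RPMI 1640 with 10% FBS at 10,000 cells/well on 384-well plates. The plates came pre-printed with 70 compounds at five tenfold concentrations spanning 1–10,000 nM, in duplicate, and cells were exposed for 72 h. CellTiter-Glo gave viability, scaled between DMSO wells and wells with 10 μM proteasome inhibitor. Where reported, area under the curve was obtained from log-logistic fits with four parameters using the drc and PharmacoGx R packages.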

[2] = test system: myeloid leukemia patient primary cells Pat.5; test: as above
Procedure, shortened: as §2

[3] = test system: myeloid leukemia patient primary cells Pat.14; test: as above
Procedure, shortened: as §2

[4] = test system: myeloid leukemia patient primary cells Pat.2; test: as above
Procedure, shortened: as §2

[5] = test system: myeloid leukemia patient primary cells Pat.9; test: as above
Procedure, shortened: as §2

[6] = test system: myeloid leukemia patient primary cells Pat.7; test: as above
Procedure, shortened: as §2

[7] = test system: myeloid leukemia patient primary cells Pat.13; test: as above
Procedure, shortened: as §2

[8] = test system: myeloid leukemia patient primary cells Pat.1; test: as above
Procedure, shortened: as §2

[9] = test system: myeloid leukemia patient primary cells Pat.8; test: as above
Procedure, shortened: as §2

[10] = test system: myeloid leukemia patient primary cells Pat.12; test: as above
Procedure, shortened: as §2

[11] = test system: myeloid leukemia patient primary cells Pat.3; test: as above
Procedure, shortened: as §2

[12] = test system: myeloid leukemia patient primary cells Pat.11; test: as above
Procedure, shortened: as §2

[13] = test system: myeloid leukemia patient primary cells Pat.15; test: as above
Procedure, shortened: as §2

[14] = test system: myeloid leukemia patient primary cells Pat.4; test: as above
Procedure, shortened: as §2

[15] = test system: myeloid leukemia patient primary cells Pat.10; test: as above
Procedure, shortened: as §2

## NS(=O)(=O)c1ccc(S(=O)(=O)Nc2cccc3c(Cl)c[nH]c23)cc1 [Indisulam]
NOMO-1; 1 nM
  cell viability: 102%
NOMO-1; 10 nM
  cell viability: 98.4%
NOMO-1; 100 nM
  cell viability: 105%
NOMO-1; 1000 nM
  cell viability: 63.2%
NOMO-1; 10000 nM
  cell viability: 24.8%
Mono-Mac-6; 1 nM
  cell viability: 101%
Mono-Mac-6; 10 nM
  cell viability: 95.3%
Mono-Mac-6; 100 nM
  cell viability: 80.3%
Mono-Mac-6; 1000 nM
  cell viability: 48.2%
Mono-Mac-6; 10000 nM
  cell viability: 11.1%
THP-1; 1 nM
  cell viability: 103%
THP-1; 10 nM
  cell viability: 94.5%
THP-1; 100 nM
  cell viability: 112%
THP-1; 1000 nM
  cell viability: 94.3%
THP-1; 10000 nM
  cell viability: 71.1%
KU-812; 1 nM
  cell viability: 102%
KU-812; 10 nM
  cell viability: 99.1%
KU-812; 100 nM
  cell viability: 108%
KU-812; 1000 nM
  cell viability: 29.9%
KU-812; 10000 nM
  cell viability: 13.7%
[1]; 1 nM
  cell viability: 99.9%
[1]; 10 nM
  cell viability: 98.2%
[1]; 100 nM
  cell viability: > 100%
[1]; 1000 nM
  cell viability: 81.5%
[1]; 10000 nM
  cell viability: 63.2%
[2]; 1 nM
  cell viability: 47.7%
[2]; 10 nM
  cell viability: 70.8%
[2]; 100 nM
  cell viability: 62.1%
[2]; 1000 nM
  cell viability: 17.9%
[2]; 10000 nM
  cell viability: 12.4%
[3]; 1 nM
  cell viability: 75.2%
[3]; 10 nM
  cell viability: 84.3%
[3]; 100 nM
  cell viability: 85.7%
[3]; 1000 nM
  cell viability: 62.6%
[3]; 10000 nM
  cell viability: 66.6%
[4]; 1 nM
  cell viability: > 100%
[4]; 10 nM
  cell viability: 88.2%
[4]; 100 nM
  cell viability: 95.8%
[4]; 1000 nM
  cell viability: 96.9%
[4]; 10000 nM
  cell viability: 67.1%
[5]; 1 nM
  cell viability: 47.8%
[5]; 10 nM
  cell viability: 84%
[5]; 100 nM
  cell viability: 81.1%
[5]; 1000 nM
  cell viability: 40.9%
[5]; 10000 nM
  cell viability: 24.6%
[6]; 1 nM
  cell viability: 93.3%
[6]; 10 nM
  cell viability: 77.1%
[6]; 100 nM
  cell viability: 91.3%
[6]; 1000 nM
  cell viability: 43.1%
[6]; 10000 nM
  cell viability: 21.2%
[7]; 1 nM
  cell viability: 92.6%
[7]; 10 nM
  cell viability: 91.3%
[7]; 100 nM
  cell viability: 98%
[7]; 1000 nM
  cell viability: 57.4%
[7]; 10000 nM
  cell viability: 44.8%
[8]; 1 nM
  cell viability: 94.5%
[8]; 10 nM
  cell viability: > 100%
[8]; 100 nM
  cell viability: 94.1%
[8]; 1000 nM
  cell viability: 65.2%
[8]; 10000 nM
  cell viability: 48.8%
[9]; 1 nM
  cell viability: 89.9%
[9]; 10 nM
  cell viability: 91.6%
[9]; 100 nM
  cell viability: 97.5%
[9]; 1000 nM
  cell viability: 79.2%
[9]; 10000 nM
  cell viability: 55.5%
[10]; 1 nM
  cell viability: 89.5%
[10]; 10 nM
  cell viability: 95.5%
[10]; 100 nM
  cell viability: 89.6%
[10]; 1000 nM
  cell viability: 96.9%
[10]; 10000 nM
  cell viability: 85.2%
[11]; 1 nM
  cell viability: 84.5%
[11]; 10 nM
  cell viability: > 100%
[11]; 100 nM
  cell viability: > 100%
[11]; 1000 nM
  cell viability: 72.9%
[11]; 10000 nM
  cell viability: 34.2%
[12]; 1 nM
  cell viability: 93.9%
[12]; 10 nM
  cell viability: > 100%
[12]; 100 nM
  cell viability: > 100%
[12]; 1000 nM
  cell viability: 86.3%
[12]; 10000 nM
  cell viability: 72.1%
[13]; 1 nM
  cell viability: 90.2%
[13]; 10 nM
  cell viability: 90.8%
[13]; 100 nM
  cell viability: 75.9%
[13]; 1000 nM
  cell viability: 79.2%
[13]; 10000 nM
  cell viability: 44.1%
[14]; 1 nM
  cell viability: 91.4%
[14]; 10 nM
  cell viability: 87.2%
[14]; 100 nM
  cell viability: 86%
[14]; 1000 nM
  cell viability: 28%
[14]; 10000 nM
  cell viability: 9.12%
[15]; 1 nM
  cell viability: 55.5%
[15]; 10 nM
  cell viability: 64.9%
[15]; 100 nM
  cell viability: 97%
[15]; 1000 nM
  cell viability: 81.4%
[15]; 10000 nM
  cell viability: > 100%

## Cc1nnc(-c2ccc(N3CCC(Oc4ccccc4C(F)(F)F)CC3)nn2)s1 [MF-438]
NOMO-1; 1 nM
  cell viability: 97.9%
NOMO-1; 10 nM
  cell viability: 99.2%
NOMO-1; 100 nM
  cell viability: 92.8%
NOMO-1; 1000 nM
  cell viability: 108%
NOMO-1; 10000 nM
  cell viability: 103%
Mono-Mac-6; 1 nM
  cell viability: 101%
Mono-Mac-6; 10 nM
  cell viability: 100%
Mono-Mac-6; 100 nM
  cell viability: 95.5%
Mono-Mac-6; 1000 nM
  cell viability: 99%
Mono-Mac-6; 10000 nM
  cell viability: 103%
THP-1; 1 nM
  cell viability: 97.9%
THP-1; 10 nM
  cell viability: 110%
THP-1; 100 nM
  cell viability: 96.5%
THP-1; 1000 nM
  cell viability: 102%
THP-1; 10000 nM
  cell viability: 98.1%
KU-812; 1 nM
  cell viability: 93.9%
KU-812; 10 nM
  cell viability: 103%
KU-812; 100 nM
  cell viability: 83.9%
KU-812; 1000 nM
  cell viability: 113%
KU-812; 10000 nM
  cell viability: 97.5%
[1]; 1 nM
  cell viability: 95.4%
[1]; 10 nM
  cell viability: 98.9%
[1]; 100 nM
  cell viability: 99.5%
[1]; 1000 nM
  cell viability: 83%
[1]; 10000 nM
  cell viability: 85.3%
[2]; 1 nM
  cell viability: 32.8%
[2]; 10 nM
  cell viability: 93.8%
[2]; 100 nM
  cell viability: 67.7%
[2]; 1000 nM
  cell viability: 46.4%
[2]; 10000 nM
  cell viability: 27.4%
[3]; 1 nM
  cell viability: 85%
[3]; 10 nM
  cell viability: > 100%
[3]; 100 nM
  cell viability: 87.8%
[3]; 1000 nM
  cell viability: 83.5%
[3]; 10000 nM
  cell viability: 92.2%
[4]; 1 nM
  cell viability: > 100%
[4]; 10 nM
  cell viability: 99.8%
[4]; 100 nM
  cell viability: 95.4%
[4]; 1000 nM
  cell viability: 87.6%
[4]; 10000 nM
  cell viability: 89.7%
[5]; 1 nM
  cell viability: 56.2%
[5]; 10 nM
  cell viability: 91.2%
[5]; 100 nM
  cell viability: 87.2%
[5]; 1000 nM
  cell viability: 69.3%
[5]; 10000 nM
  cell viability: 75.2%
[6]; 1 nM
  cell viability: > 100%
[6]; 10 nM
  cell viability: 93.3%
[6]; 100 nM
  cell viability: 99.7%
[6]; 1000 nM
  cell viability: 74.4%
[6]; 10000 nM
  cell viability: 41.2%
[7]; 1 nM
  cell viability: 86.8%
[7]; 10 nM
  cell viability: 86.4%
[7]; 100 nM
  cell viability: 86.9%
[7]; 1000 nM
  cell viability: 80.8%
[7]; 10000 nM
  cell viability: 97.4%
[8]; 1 nM
  cell viability: 78.8%
[8]; 10 nM
  cell viability: 85.8%
[8]; 100 nM
  cell viability: 97.1%
[8]; 1000 nM
  cell viability: 90.5%
[8]; 10000 nM
  cell viability: 82.8%
[9]; 1 nM
  cell viability: 86.9%
[9]; 10 nM
  cell viability: 94.5%
[9]; 100 nM
  cell viability: 77.7%
[9]; 1000 nM
  cell viability: 86.9%
[9]; 10000 nM
  cell viability: 94.9%
[10]; 1 nM
  cell viability: 99.4%
[10]; 10 nM
  cell viability: 97.1%
[10]; 100 nM
  cell viability: > 100%
[10]; 1000 nM
  cell viability: 87.5%
[10]; 10000 nM
  cell viability: 90.5%
[11]; 1 nM
  cell viability: 76.3%
[11]; 10 nM
  cell viability: 77.5%
[11]; 100 nM
  cell viability: 72.9%
[11]; 1000 nM
  cell viability: 61.3%
[11]; 10000 nM
  cell viability: 74.1%
[12]; 1 nM
  cell viability: 94%
[12]; 10 nM
  cell viability: 96.6%
[12]; 100 nM
  cell viability: > 100%
[12]; 1000 nM
  cell viability: > 100%
[12]; 10000 nM
  cell viability: 90.6%
[13]; 1 nM
  cell viability: 97.4%
[13]; 10 nM
  cell viability: 89.5%
[13]; 100 nM
  cell viability: 98.7%
[13]; 1000 nM
  cell viability: 86.9%
[13]; 10000 nM
  cell viability: 69.8%
[14]; 1 nM
  cell viability: 83.7%
[14]; 10 nM
  cell viability: 98.5%
[14]; 100 nM
  cell viability: 87.9%
[14]; 1000 nM
  cell viability: 85.8%
[14]; 10000 nM
  cell viability: 68.8%
[15]; 1 nM
  cell viability: 80.2%
[15]; 10 nM
  cell viability: 89.2%
[15]; 100 nM
  cell viability: 96.8%
[15]; 1000 nM
  cell viability: 87.5%
[15]; 10000 nM
  cell viability: > 100%
